Assay results as given in patent publication US9896435B2, “N-pyrrolidinyl,N′-pyrazolyl-urea, thiourea, guanidine and cyanoguanidine compounds as TrkA kinase inhibitors” (Array BioPharma Inc., priority 2012, dated 2018).

Columns and labels:
[1] = test system: off-target kinases in the full kinase panel; test: KinaseProfiler full kinase panel, overall result; type: biochemical; details: for selectivity for inhibiting TrkA versus other kinases in the panel: 10 μM, panel of about 230 kinases; for activity against off-target kinases: concentration of 10 μM
Procedure: (§1) Two representative compounds (Example 2, 14) of the invention were tested for off-target kinase activity at a concentration of 10 μM by Millipore, Inc. in their KinaseProfiler™ service against all the kinases available in their full kinase panel. These compounds were run in duplicate at a concentration of ATP near the Km for each individual kinase according to Millipore's specifications. The results are shown in Table B. Data are reported as percent of control (POC) and are the average of the two replicates.
Such a drug profile would represent a safer approach to treating pain, inflammation, cancer and certain skin diseases than has been previously reported.

[2] = target: His-tagged recombinant human TrkA (Homo sapiens (Human), UniProt P04629); test: TrkA LanthaScreen Eu Kinase Binding Assay; details: averaged IC50; LanthaScreen binding assay of Example A; read-out: TrkA Enzyme IC50
Procedure: TrkA binding activity was determined in a TrkA LanthaScreen™ Eu Kinase Binding Assay. 5 nM His-tagged recombinant human TrkA (6HIS tagged cytoplasmic domain from Invitrogen, Catalog No. PV3144) was incubated with 4 nM Alexa-Fluor® Tracer 236 (Invitrogen Cat. No. PV5592), 2 nM biotinylated anti-His (Invitrogen Cat. No. PV6090), and 2 nM europium-labeled Streptavidin (Invitrogen Cat. No. PV5899), in buffer (25 mM MOPS, pH 7.5, 5 mM MgCl2, 0.005% Triton X-100). Three fold serial dilutions of compounds of the invention in DMSO were added to a final percentage of 2% DMSO. After 60-minute incubation at 22° C., the reaction was measured using the EnVision mutlimode plate reader (PerkinElmer) via TR-FRET dual wavelength detection at […]. The percent of control was calculated using a ratiometric emission factor. The IC50 values were determined by fitting a four parameter model to the percent of control data.
Table A provides averaged IC50 values for compounds of the invention when tested in the assay of Example A, where A represents an averaged IC50 value<100 nM.

[3] = target: DMPK (Homo sapiens (Human), UniProt Q09013); test: KinaseProfiler off-target kinase profiling; type: biochemical; details: 10 μM, ATP near Km
Procedure: as §1

[4] = target: IGF-1R Activated (Homo sapiens (Human), UniProt P08069); test: KinaseProfiler off-target kinase profiling; type: biochemical; details: 10 μM, ATP near Km
Procedure: as §1

[5] = target: ALK (Homo sapiens (Human), UniProt Q9UM73); test: KinaseProfiler off-target kinase profiling; type: biochemical; details: 10 μM, ATP near Km
Chain of ALK (Q9UM73 19-1620): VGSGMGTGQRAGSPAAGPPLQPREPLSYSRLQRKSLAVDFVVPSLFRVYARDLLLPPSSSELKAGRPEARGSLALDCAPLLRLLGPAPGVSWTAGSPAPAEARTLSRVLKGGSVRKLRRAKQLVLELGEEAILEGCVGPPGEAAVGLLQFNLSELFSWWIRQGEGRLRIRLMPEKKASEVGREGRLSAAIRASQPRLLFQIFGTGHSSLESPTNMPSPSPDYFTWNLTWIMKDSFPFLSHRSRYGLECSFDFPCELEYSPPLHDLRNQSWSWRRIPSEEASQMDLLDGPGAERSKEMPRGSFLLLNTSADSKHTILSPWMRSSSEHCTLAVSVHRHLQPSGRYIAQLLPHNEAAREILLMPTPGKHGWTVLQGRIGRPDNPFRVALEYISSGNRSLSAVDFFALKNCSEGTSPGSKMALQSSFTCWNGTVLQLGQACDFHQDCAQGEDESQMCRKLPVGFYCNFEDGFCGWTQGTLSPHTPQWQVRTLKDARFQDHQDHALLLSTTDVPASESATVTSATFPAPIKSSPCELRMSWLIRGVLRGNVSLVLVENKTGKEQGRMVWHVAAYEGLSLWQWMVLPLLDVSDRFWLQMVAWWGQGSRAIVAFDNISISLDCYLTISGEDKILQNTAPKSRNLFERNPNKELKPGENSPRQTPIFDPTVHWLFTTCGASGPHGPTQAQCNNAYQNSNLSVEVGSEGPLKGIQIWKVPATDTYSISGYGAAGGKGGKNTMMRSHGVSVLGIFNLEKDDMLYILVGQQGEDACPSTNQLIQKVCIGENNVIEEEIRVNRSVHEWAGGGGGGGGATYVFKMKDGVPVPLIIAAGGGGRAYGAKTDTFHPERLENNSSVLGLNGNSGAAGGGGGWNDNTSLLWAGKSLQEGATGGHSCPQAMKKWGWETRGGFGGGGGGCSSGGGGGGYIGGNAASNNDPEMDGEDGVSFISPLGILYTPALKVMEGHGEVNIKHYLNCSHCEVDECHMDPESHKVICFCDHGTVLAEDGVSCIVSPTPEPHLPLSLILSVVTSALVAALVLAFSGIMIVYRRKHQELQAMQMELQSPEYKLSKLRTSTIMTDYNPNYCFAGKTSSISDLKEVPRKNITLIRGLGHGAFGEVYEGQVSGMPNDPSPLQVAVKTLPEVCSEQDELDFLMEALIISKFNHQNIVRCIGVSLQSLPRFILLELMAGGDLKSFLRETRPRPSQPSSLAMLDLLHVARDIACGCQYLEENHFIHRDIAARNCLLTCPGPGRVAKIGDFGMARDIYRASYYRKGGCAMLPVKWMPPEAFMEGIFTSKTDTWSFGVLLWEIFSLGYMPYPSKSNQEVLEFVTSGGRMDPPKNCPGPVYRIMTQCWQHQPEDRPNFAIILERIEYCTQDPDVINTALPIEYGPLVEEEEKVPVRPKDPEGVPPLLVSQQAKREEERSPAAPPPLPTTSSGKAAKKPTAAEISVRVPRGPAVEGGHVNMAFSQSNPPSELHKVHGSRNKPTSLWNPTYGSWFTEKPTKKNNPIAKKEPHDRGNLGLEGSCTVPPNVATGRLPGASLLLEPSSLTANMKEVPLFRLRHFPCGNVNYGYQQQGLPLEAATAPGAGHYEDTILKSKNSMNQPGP
Procedure: as §1

[6] = target: MKK7 (Homo sapiens (Human), UniProt O14733); test: KinaseProfiler off-target kinase profiling; type: biochemical; details: 10 μM, ATP near Km
Procedure: as §1

[7] = target: ErbB4 (Homo sapiens (Human), UniProt Q15303); test: KinaseProfiler off-target kinase profiling; type: biochemical; details: 10 μM, ATP near Km
Procedure: as §1

[8] = target: DYRK2 (Homo sapiens (Human), UniProt Q92630); test: KinaseProfiler off-target kinase profiling; type: biochemical; details: 10 μM, ATP near Km
Procedure: as §1

[9] = target: NEK3 (Homo sapiens (Human), UniProt P51956); test: KinaseProfiler off-target kinase profiling; type: biochemical; details: 10 μM, ATP near Km
Procedure: as §1

[10] = target: ARK5 (Homo sapiens (Human), UniProt O60285); test: KinaseProfiler off-target kinase profiling; type: biochemical; details: 10 μM, ATP near Km
Procedure: as §1

[11] = target: GSK3alpha (Homo sapiens (Human), UniProt P49840); test: KinaseProfiler off-target kinase profiling; type: biochemical; details: 10 μM, ATP near Km
Chain of GSK3alpha (P49840 whole entry): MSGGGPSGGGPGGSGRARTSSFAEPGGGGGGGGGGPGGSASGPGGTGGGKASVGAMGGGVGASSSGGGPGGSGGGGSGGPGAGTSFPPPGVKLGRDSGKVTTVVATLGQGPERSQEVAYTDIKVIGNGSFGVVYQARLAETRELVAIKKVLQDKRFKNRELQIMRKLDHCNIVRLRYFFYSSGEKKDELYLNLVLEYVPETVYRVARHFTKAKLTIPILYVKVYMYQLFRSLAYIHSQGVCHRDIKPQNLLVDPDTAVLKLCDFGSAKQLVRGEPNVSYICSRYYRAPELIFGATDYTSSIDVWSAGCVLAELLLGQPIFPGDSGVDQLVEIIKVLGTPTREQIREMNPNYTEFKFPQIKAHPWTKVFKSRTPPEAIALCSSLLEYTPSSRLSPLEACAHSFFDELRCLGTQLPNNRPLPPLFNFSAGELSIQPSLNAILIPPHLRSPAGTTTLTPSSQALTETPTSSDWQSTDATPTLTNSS
Procedure: as §1

[12] = target: MRCKbeta (Homo sapiens (Human), UniProt Q9Y5S2); test: KinaseProfiler off-target kinase profiling; type: biochemical; details: 10 μM, ATP near Km
Procedure: as §1

[13] = target: GRK7 (Homo sapiens (Human), UniProt Q8WTQ7); test: KinaseProfiler off-target kinase profiling; type: biochemical; details: 10 μM, ATP near Km
Procedure: as §1

[14] = target: CHK2 (Homo sapiens (Human), UniProt O96017); test: KinaseProfiler off-target kinase profiling; type: biochemical; details: 10 μM, ATP near Km
Procedure: as §1

[15] = target: SGK2 (Homo sapiens (Human), UniProt Q9HBY8); test: KinaseProfiler off-target kinase profiling; type: biochemical; details: 10 μM, ATP near Km
Procedure: as §1

[16] = target: Hck (Homo sapiens (Human), UniProt P08631); test: KinaseProfiler off-target kinase profiling; type: biochemical; details: 10 μM, ATP near Km
Procedure: as §1

[17] = target: GRK5 (Homo sapiens (Human), UniProt P34947); test: KinaseProfiler off-target kinase profiling; type: biochemical; details: 10 μM, ATP near Km
Procedure: as §1

[18] = target: Plk1 (Homo sapiens (Human), UniProt P53350); test: KinaseProfiler off-target kinase profiling; type: biochemical; details: 10 μM, ATP near Km
Procedure: as §1

[19] = target: EphA5 (Homo sapiens (Human), UniProt P54756); test: KinaseProfiler off-target kinase profiling; type: biochemical; details: 10 μM, ATP near Km
Procedure: as §1

[20] = target: Pim-1 (Homo sapiens (Human), UniProt P11309); test: KinaseProfiler off-target kinase profiling; type: biochemical; details: 10 μM, ATP near Km
Chain of Pim-1 (P11309 whole entry): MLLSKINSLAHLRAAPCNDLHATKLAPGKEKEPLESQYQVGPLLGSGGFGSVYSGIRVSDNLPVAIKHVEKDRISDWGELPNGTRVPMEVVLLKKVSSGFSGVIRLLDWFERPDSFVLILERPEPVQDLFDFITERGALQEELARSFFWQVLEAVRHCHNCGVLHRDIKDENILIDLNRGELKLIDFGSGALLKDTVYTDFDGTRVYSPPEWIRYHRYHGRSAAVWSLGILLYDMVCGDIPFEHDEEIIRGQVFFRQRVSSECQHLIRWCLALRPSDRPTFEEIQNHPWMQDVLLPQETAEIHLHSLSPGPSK
Procedure: as §1

[21] = target: CDK2/cyclinA (Homo sapiens (Human), UniProt P24941); test: KinaseProfiler off-target kinase profiling; type: biochemical; details: 10 μM, ATP near Km
Procedure: as §1

[22] = target: SGK1 (Homo sapiens (Human), UniProt O00141); test: KinaseProfiler off-target kinase profiling; type: biochemical; details: 10 μM, ATP near Km
Procedure: as §1

[23] = target: CLK3 (Homo sapiens (Human), UniProt P49761); test: KinaseProfiler off-target kinase profiling; type: biochemical; details: 10 μM, ATP near Km
Chain of CLK3 (P49761 whole entry): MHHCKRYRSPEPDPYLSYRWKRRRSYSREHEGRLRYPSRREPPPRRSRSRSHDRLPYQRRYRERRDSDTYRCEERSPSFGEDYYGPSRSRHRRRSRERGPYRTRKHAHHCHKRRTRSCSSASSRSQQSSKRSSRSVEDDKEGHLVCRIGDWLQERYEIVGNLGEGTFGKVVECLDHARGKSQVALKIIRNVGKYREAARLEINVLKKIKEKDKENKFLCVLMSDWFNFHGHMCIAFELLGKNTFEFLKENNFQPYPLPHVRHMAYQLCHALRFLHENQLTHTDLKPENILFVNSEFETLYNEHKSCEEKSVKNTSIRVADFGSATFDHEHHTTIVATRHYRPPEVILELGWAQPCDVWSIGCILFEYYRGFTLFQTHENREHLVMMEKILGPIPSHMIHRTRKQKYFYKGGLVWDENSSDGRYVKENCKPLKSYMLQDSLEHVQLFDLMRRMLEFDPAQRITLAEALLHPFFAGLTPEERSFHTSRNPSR
Procedure: as §1

[24] = target: EphA8 (Homo sapiens (Human), UniProt P29322); test: KinaseProfiler off-target kinase profiling; type: biochemical; details: 10 μM, ATP near Km
Procedure: as §1

[25] = target: EphB2 (Homo sapiens (Human), UniProt P29323); test: KinaseProfiler off-target kinase profiling; type: biochemical; details: 10 μM, ATP near Km
Procedure: as §1

[26] = target: GSK3beta (Homo sapiens (Human), UniProt P49841); test: KinaseProfiler off-target kinase profiling; type: biochemical; details: 10 μM, ATP near Km
Chain of GSK3beta (P49841 whole entry): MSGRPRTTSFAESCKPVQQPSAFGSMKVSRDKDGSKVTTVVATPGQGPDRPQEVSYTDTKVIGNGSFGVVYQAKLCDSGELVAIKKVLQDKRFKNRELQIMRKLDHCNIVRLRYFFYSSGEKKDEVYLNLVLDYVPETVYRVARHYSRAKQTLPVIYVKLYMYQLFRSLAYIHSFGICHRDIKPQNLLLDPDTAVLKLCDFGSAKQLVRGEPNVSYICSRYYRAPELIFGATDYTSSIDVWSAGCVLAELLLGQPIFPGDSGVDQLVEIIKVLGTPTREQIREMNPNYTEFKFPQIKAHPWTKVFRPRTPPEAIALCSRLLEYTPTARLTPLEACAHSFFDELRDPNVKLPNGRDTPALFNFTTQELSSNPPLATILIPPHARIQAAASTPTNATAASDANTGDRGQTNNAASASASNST
Procedure: as §1

[27] = target: Flt3 (Homo sapiens (Human), UniProt P36888); test: KinaseProfiler off-target kinase profiling; type: biochemical; details: 10 μM, ATP near Km
Chain of Flt3 (P36888 27-993): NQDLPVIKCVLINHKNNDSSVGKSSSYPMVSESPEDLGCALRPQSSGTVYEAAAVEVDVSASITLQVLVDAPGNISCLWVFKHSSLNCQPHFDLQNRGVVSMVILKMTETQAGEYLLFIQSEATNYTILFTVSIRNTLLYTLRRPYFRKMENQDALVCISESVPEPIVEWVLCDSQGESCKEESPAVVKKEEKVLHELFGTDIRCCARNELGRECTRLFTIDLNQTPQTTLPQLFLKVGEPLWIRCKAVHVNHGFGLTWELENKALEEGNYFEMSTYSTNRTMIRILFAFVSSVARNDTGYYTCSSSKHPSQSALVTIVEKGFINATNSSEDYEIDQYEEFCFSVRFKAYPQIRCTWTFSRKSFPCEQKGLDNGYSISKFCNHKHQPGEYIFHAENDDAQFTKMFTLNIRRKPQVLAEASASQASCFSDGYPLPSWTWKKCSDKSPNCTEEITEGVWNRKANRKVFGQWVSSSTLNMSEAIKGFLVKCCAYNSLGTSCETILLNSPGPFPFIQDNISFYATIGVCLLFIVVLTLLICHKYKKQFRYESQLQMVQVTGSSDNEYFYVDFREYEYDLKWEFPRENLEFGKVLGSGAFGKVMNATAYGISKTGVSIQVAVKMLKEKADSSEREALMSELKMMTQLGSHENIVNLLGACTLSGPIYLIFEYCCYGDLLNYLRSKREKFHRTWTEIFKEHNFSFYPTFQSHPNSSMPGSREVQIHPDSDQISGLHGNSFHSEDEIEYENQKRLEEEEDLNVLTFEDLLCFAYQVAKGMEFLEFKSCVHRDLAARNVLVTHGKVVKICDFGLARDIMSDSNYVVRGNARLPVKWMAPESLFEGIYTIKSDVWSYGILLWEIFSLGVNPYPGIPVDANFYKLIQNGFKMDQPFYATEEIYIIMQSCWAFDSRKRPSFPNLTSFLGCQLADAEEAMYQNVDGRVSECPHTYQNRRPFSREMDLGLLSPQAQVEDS
Procedure: as §1

[28] = target: TAO3 (Homo sapiens (Human), UniProt Q9H2K8); test: KinaseProfiler off-target kinase profiling; type: biochemical; details: 10 μM, ATP near Km
Procedure: as §1

[29] = target: LKB1 (Homo sapiens (Human), UniProt Q15831); test: KinaseProfiler off-target kinase profiling; type: biochemical; details: 10 μM, ATP near Km
Procedure: as §1

[30] = target: TEC Activated (Homo sapiens (Human), UniProt P42680); test: KinaseProfiler off-target kinase profiling; type: biochemical; details: 10 μM, ATP near Km
Procedure: as §1

[31] = target: PDGFRalpha (Homo sapiens (Human), UniProt P16234); test: KinaseProfiler off-target kinase profiling; type: biochemical; details: 10 μM, ATP near Km
Procedure: as §1

[32] = target: MSSK1 (Homo sapiens (Human), UniProt Q9UPE1); test: KinaseProfiler off-target kinase profiling; type: biochemical; details: 10 μM, ATP near Km
Chain of MSSK1 (Q9UPE1 whole entry): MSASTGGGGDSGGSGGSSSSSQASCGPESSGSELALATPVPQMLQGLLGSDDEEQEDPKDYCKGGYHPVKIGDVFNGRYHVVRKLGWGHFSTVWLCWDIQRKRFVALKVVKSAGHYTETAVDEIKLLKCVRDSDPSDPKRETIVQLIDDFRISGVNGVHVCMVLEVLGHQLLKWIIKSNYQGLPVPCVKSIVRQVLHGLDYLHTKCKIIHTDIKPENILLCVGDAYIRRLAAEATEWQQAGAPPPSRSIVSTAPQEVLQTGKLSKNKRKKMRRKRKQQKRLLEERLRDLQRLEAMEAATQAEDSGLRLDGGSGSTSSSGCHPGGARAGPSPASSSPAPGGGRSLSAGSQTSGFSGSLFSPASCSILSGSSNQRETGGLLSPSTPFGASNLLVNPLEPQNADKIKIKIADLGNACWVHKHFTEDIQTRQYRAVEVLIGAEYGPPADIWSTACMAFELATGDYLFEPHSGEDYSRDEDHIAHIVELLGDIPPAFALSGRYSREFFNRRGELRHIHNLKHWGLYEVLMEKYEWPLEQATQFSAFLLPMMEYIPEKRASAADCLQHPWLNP
Procedure: as §1

Question: How did the “selectivity for inhibiting TrkA versus other kinases in the panel” value [1] turn out when `COCCN1C[C@@H](NC(=O)Nc2c(C)c(-c3ccnc(C)c3)nn2-c2ccccc2)[C@H](c2ccc(F)c(F)c2)C1` [Example 2, 1-((3S,4R)-4-(3,4-difluorophenyl)-1-(2-methoxyethyl)pyrrolidin-3-yl)-3-(4-methyl-3-(2-methylpyridin-4-yl)-1-phenyl-1H-pyrazol-5-yl)urea] was run?
Answer: remarkable and unexpected selectivity

Question: And the “activity against off-target kinases” value [1]?
Answer: largely inactive

Question: What about the IC50 [2] of the same compound?
Answer: < 100 nM

Question: What about the “Avg POC” value [3] of the same compound?
Answer: 98.5 POC

Question: And the “Avg POC” value [4]?
Answer: 102 POC

Question: What about the “Avg POC” value [5] of the same compound?
Answer: 111 POC

Question: What about the “Avg POC” value [6] of the same compound?
Answer: 97.5 POC

Question: What about the “Avg POC” value [7] of the same compound?
Answer: 98 POC

Question: What about the “Avg POC” value [8] of the same compound?
Answer: 90.5 POC

Question: What about the “Avg POC” value [9] of the same compound?
Answer: 97 POC

Question: What about the “Avg POC” value [10] of the same compound?
Answer: 89 POC

Question: What about the “Avg POC” value [11] of the same compound?
Answer: 94 POC

Question: What about the “Avg POC” value [12] of the same compound?
Answer: 105 POC

Question: And the “Avg POC” value [13]?
Answer: 104 POC

Question: And the “Avg POC” value [14]?
Answer: 101 POC

Question: What about the “Avg POC” value [15] of the same compound?
Answer: 99 POC

Question: What about the “Avg POC” value [16] of the same compound?
Answer: 116.5 POC

Question: What about the “Avg POC” value [17] of the same compound?
Answer: 103.5 POC

Question: What about the “Avg POC” value [18] of the same compound?
Answer: 100 POC

Question: And the “Avg POC” value [19]?
Answer: 102.5 POC

Question: And the “Avg POC” value [20]?
Answer: 99.5 POC

Question: And the “Avg POC” value [21]?
Answer: 111 POC

Question: What about the “Avg POC” value [22] of the same compound?
Answer: 98.5 POC

Question: What about the “Avg POC” value [23] of the same compound?
Answer: 94 POC

Question: And the “Avg POC” value [24]?
Answer: 104.5 POC

Question: What about the “Avg POC” value [25] of the same compound?
Answer: 109.5 POC

Question: And the “Avg POC” value [26]?
Answer: 108 POC

Question: What about the “Avg POC” value [27] of the same compound?
Answer: 119.5 POC

Question: And the “Avg POC” value [28]?
Answer: 97.5 POC

Question: What about the “Avg POC” value [29] of the same compound?
Answer: 89.5 POC

Question: And the “Avg POC” value [30]?
Answer: 107 POC

Question: What about the “Avg POC” value [31] of the same compound?
Answer: 110.5 POC

Question: What about the “Avg POC” value [32] of the same compound?
Answer: 118 POC

Question: For `COCCN1C[C@@H](NC(=O)Nc2c(C)c(-c3cnc(C)nc3)nn2-c2ccccc2)[C@H](c2cc(F)cc(F)c2)C1` [Example 14, 1-((3S,4R)-4-(3,5-difluorophenyl)-1-(2-methoxyethyl)pyrrolidin-3-yl)-3-(4-methyl-3-(2-methylpyrimidin-5-yl)-1-phenyl-1H-pyrazol-5-yl)urea], which “selectivity for inhibiting TrkA versus other kinases in the panel” value [1] is on record?
Answer: remarkable and unexpected selectivity

Question: And the “activity against off-target kinases” value [1]?
Answer: largely inactive

Question: And the IC50 [2]?
Answer: < 100 nM

Question: And the “Avg POC” value [3]?
Answer: 105 POC

Question: And the “Avg POC” value [4]?
Answer: 106 POC

Question: What about the “Avg POC” value [5] of the same compound?
Answer: 102.5 POC

Question: What about the “Avg POC” value [6] of the same compound?
Answer: 111 POC

Question: What about the “Avg POC” value [7] of the same compound?
Answer: 101.5 POC

Question: What about the “Avg POC” value [8] of the same compound?
Answer: 85 POC

Question: What about the “Avg POC” value [9] of the same compound?
Answer: 101 POC

Question: What about the “Avg POC” value [10] of the same compound?
Answer: 85 POC

Question: And the “Avg POC” value [11]?
Answer: 101.5 POC

Question: What about the “Avg POC” value [12] of the same compound?
Answer: 98.5 POC

Question: And the “Avg POC” value [13]?
Answer: 97 POC

Question: What about the “Avg POC” value [14] of the same compound?
Answer: 97.5 POC

Question: And the “Avg POC” value [15]?
Answer: 100 POC

Question: And the “Avg POC” value [16]?
Answer: 108.5 POC

Question: And the “Avg POC” value [17]?
Answer: 91 POC

Question: What about the “Avg POC” value [18] of the same compound?
Answer: 113 POC

Question: What about the “Avg POC” value [19] of the same compound?
Answer: 101.5 POC

Question: And the “Avg POC” value [20]?
Answer: 103.5 POC

Question: What about the “Avg POC” value [21] of the same compound?
Answer: 113.5 POC

Question: What about the “Avg POC” value [22] of the same compound?
Answer: 99 POC

Question: And the “Avg POC” value [23]?
Answer: 94 POC

Question: What about the “Avg POC” value [24] of the same compound?
Answer: 104.5 POC

Question: And the “Avg POC” value [25]?
Answer: 120 POC

Question: And the “Avg POC” value [26]?
Answer: 114.5 POC

Question: What about the “Avg POC” value [27] of the same compound?
Answer: 90 POC

Question: What about the “Avg POC” value [28] of the same compound?
Answer: 100.5 POC

Question: What about the “Avg POC” value [29] of the same compound?
Answer: 103.5 POC

Question: And the “Avg POC” value [30]?
Answer: 83.5 POC

Question: And the “Avg POC” value [31]?
Answer: 114.5 POC

Question: And the “Avg POC” value [32]?
Answer: 109 POC
